Experimental data reported in patent US20060194259A1, “Method for isolating an allosteric effector of a receptor” (priority 2002, published 2006).

Legend:
receptor EGFP-NK2R [1] = biological target: T1, receptor EGFP-NK2R (UniProt P16610); experiment: Reversion of the binding of NKA-Bo to EGFP-NK2R by fluorescence energy transfer; parameters: % al (max): maximum value observed for the increase in amplitude of the rapid dissociation rate; ns = n; other: 20 nM of NK; % al (at 10 μM); other: compou; fused on or other part: EGFP fused to the receptor as FRET donor; conditions: 20 nM NKA-Bo; increasing concentration of compound; 100% = NKA 10 μM
T1 sequence (P16610 1-390): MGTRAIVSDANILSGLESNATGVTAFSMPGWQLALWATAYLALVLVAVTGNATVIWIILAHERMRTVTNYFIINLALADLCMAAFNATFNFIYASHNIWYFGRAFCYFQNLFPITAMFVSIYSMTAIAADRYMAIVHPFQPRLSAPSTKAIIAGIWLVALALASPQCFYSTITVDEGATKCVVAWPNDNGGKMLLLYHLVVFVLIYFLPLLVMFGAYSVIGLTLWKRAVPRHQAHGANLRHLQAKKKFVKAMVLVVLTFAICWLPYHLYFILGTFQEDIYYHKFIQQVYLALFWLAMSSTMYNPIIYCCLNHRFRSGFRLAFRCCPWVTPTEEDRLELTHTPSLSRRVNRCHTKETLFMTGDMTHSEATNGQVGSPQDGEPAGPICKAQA
Excerpt: (§1) The amplitude of each relaxation is then given by the adjustment of the experimental traces.

receptor EGFP-NK2R [2] = biological target: T1, receptor EGFP-NK2R; experiment: Dissociation kinetics of NKA-Bo bound to EGFP-NK2R by fluorescence energy transfer; type: binding; parameters: % al (max): maximum value observed for the increase in amplitude of the rapid dissociation rate; ns = n; other: 20 nM of NK; % al (at 10 μM); other: compou; fused on or other part: EGFP fused to the receptor as FRET donor
Method: Dissociation (FIG. 4B): HEK 293 cells expressing the receptor EGFP-NK2R are put into suspension at a concentration of 1,000,000 cells/ml in Hepes physiological buffer (in mM: 137.5 NaCl; 1.25 MgCl2; 1.25 CaCl2; 6 KCl; 5.6 glucose; 10 Hepes; 0.4 NaH2PO4; 1% BSA (w/v); pH 7.4) and arranged in a 1 ml cuvette equipped with a magnetic stirrer on the cuvette holder of a SPEX fluorolog 3 spectrofluorimeter.
as §1

receptor EGFP-NK2R [3] = biological target: T1, receptor EGFP-NK2R; experiment: Association kinetics of NKA-Bo with EGFP-NK2R by fluorescence energy transfer (rapid mixing); type: binding; parameters: % al (max): maximum value observed for the increase in amplitude of the rapid dissociation rate; ns = n; other: 20 nM of NK; % al (at 10 μM); other: compou; fused on or other part: EGFP fused to the receptor as FRET donor
Excerpt: Association (FIG. 4A): HEK 293 cells expressing the receptor EGFP-NK2R (NK2R marked with GFP) are put into suspension at a concentration of 2,000,000 cells/ml in Hepes physiological buffer (in mM: 137.5 NaCl; 1.25 MgCl2; 1.25 CaCl2; 6 KCl; 5.6 glucose; 10 Hepes; 0.4 NaH2PO4; 1% BSA (w/v); pH 7.4) and arranged in one of the reservoirs of the rapid mixing device. […] The observation chamber is arranged in a SPEX fluorolog 3 spectrofluorimeter. The temperature of the reservoir of the syringes as well as of the mixing and observation chamber is fixed at 21° C. The excitation wavelength of the observation chamber is fixed at 470 nm, and the fluorescence emission wavelength is fixed at 510 nm. The sampling frequency of the experimental points is fixed at 50 Hz (1 point every 20 msec). The content of the reservoirs is driven towards the mixing and observation chamber using a pneumatic device allowing a flow rate of 4 ml/sec and the evolution of the mixture is recorded continuously from the moment of stopping of the thrust of the pistons of the reservoirs. The reaction of association of NKA-Bo with the receptor EGFP-NK2R is detected in the form of a reduction in the intensity of fluorescence of the GFP carried by the receptor NK2R. The experimental trace is adjusted by a multiexponential curve of type y=λ1 exp (−k1app×T)+λ2 exp (−k2app×T)+“straight”, where λ1 and λ2 are the amplitudes of the rapid and slow relaxations, k1app and k2app are the apparent rate constants of rapid and slow association, T is time and “straight” is a mathematical correction of the signal drift. The values of λ1, λ2, k1app, k2app for a final concentration of NKA-BO of 100 nM are respectively 67%; 32%; 0.6 sec^−1 and 0.03 sec^−1. The correlation coefficient of the adjustment of the experimental curve is R=0.989.
The rapid binding of NKA-Bo, recorded at a concentration of 20 nM using the rapid mixing equipment, is broken down into a sum of two exponentials the rates (kapp) of which differ by a factor of 10. The rapid binding of NKA-Bo (kapp=0.095 sec^−1) represents 44% of the total binding signal, in the absence of A11 (50 μM), whereas it represents 52% of the total signal in the presence of A11. The slow binding is carried out in both cases with an apparent rate (kapp) equal to 0.0095 sec^−1, and an amplitude equal to […] in the absence of A11, and 48% in the presence of A11.

[4] = test system: cells not expressing the EGFP-NK2R receptor; experiment: Calcium response on cells not expressing the receptor; type: cell-based; parameters: key: ns: not significant; ?: uniterpretable; conditions: Table 1
receptor EGFP-NK2R [5] = biological target: T2, receptor EGFP-NK2R (Homo sapiens, UniProt P21452); experiment: Dissociation of NKA4-10 TR7 from EGFP-NK2R by fluorescence energy transfer; type: binding; conditions: 10° C.; without 805
T2 sequence (P21452 1-398): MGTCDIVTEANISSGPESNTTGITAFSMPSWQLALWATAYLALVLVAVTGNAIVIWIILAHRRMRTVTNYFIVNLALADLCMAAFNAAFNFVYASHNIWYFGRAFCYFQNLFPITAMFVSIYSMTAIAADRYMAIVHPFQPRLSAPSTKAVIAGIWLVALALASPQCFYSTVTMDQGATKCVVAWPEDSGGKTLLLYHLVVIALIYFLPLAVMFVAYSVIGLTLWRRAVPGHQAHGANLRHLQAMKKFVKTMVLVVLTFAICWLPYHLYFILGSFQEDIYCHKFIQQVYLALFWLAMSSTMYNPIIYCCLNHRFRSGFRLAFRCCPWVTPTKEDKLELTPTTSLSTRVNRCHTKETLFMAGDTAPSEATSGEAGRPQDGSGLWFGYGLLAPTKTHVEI
Method: (§2) The x-axis represents time in seconds and the y-axis represents fluorescence.
(§3) In the presence of 10 μM of 805, an acceleration of the dissociation is observed characterized by a modification of the amplitudes of the rapid (88%) and slow (12%) dissociation stages.

receptor EGFP-NK2R [6] = biological target: T1, receptor EGFP-NK2R; experiment: as above; type: binding; parameters: % al (max): maximum value observed for the increase in amplitude of the rapid dissociation rate; ns = n; other: 20 nM of NK; % al (at 10 μM); other: compou; fused on or other part: EGFP fused to the receptor as FRET donor; conditions: 10° C.; without 805
Method: as §2, §3

receptor EGFP-NK2R [7] = biological target: T2, receptor EGFP-NK2R; experiment: Calcium response caused by NKA 4-10 TR7 in HEK 293 cells expressing EGFP-NK2R (indo-1); type: cell-based; conditions: read-out: 50%-effective dose of NKA 4-10 TR7 for the calcium response; without 805
Method: The cells are put into suspension at a rate of 500,000 cells/ml in Hepes buffer and arranged in a spectrofluorimeter cuvette. The excitation wavelength is fixed at 355 nm and the emission is recorded at […].

[8] = in the presence of 50 μM compound, dissociation by non-fluorescent NKA
[9] = 20 nM NKA-Bo, 10 μM SR 48968, no effector

N#CCN(Cc1ccc(N)cc1)Cc1ccc2ccccc2c1 [A11, [(4-Amino-benzyl)-naphthalen-2-ylmethyl-amino]-acetonitrile]
fraction of the NKA-Bo bound to its site displaced by the compound (receptor EGFP-NK2R [1]): 29%
% al (max): maximum value observed for the increase in amplitude of the rapid dissociation rate (receptor EGFP-NK2R [2]; Table 1, ns = not significant): ≧90%
fraction of receptors in the low-affinity state (receptor EGFP-NK2R [2]; at 100 μM of effector, approximately 25% in the absence of effector): ~100%
effect on the dissociation kinetics of NKA-Bo (receptor EGFP-NK2R [2]; dissociation by non-fluorescent NKA in the presence of compound): accelerating the dissociation rate
amplitude of the rapid dissociation of NKA-Bo (% of total signal) (receptor EGFP-NK2R [2]; [8]): 78%
amplitude of the slow dissociation of NKA-Bo (% of total signal) (receptor EGFP-NK2R [2]; [8]): 22%
EC50 (receptor EGFP-NK2R [2]; read-out: EC50 (μM): concentration of compound causing a 50% increase (relative to the maximum value) in the percentage of the amplitude of the rapid dissociation rate, Table 1, dissociation of NKA-Bo from EGFP-NK2R, ns = not significant): 38 to 44 µM
rapid binding of NKA-Bo, % of the total binding signal (receptor EGFP-NK2R [3]; 20 nM NKA-Bo, in the presence of A11 (50 μM), 44% in its absence): 52%
slow binding of NKA-Bo, amplitude (receptor EGFP-NK2R [3]; 20 nM NKA-Bo, in the presence of A11 (50 μM), 66% in its absence): 48%
Ca Rep.: ability to evoke a calcium response on cells not expressing the EGFP-NK2R receptor [4]: ns

CSCC[C@H](NC(=O)[C@H](CC(C)C)NC(=O)CNC(=O)[C@@H](NC(=O)[C@H](Cc1ccccc1)NC(=O)[C@H](CO)NC(=O)[C@H](CC(=O)O)NC(=O)[C@@H](NC(=O)[C@H](CCCCN)NC(=O)[C@H](Cc1c[nH]cn1)NC(=O)CCc1ccc2n1[B-](F)(F)[N+]1=C(c3ccccc3)C=C(c3ccccc3)C1=C2)[C@@H](C)O)C(C)C)C(N)=O [NKA-Bo]
λ1, amplitude of rapid dissociation of NKA-Bo (receptor EGFP-NK2R [2]; [9]): 40%
λ2, amplitude of slow dissociation of NKA-Bo (receptor EGFP-NK2R [2]; [9]): 58%
k1app, apparent rate constant of rapid association (receptor EGFP-NK2R [3]; NKA-BO 100 nM final, 21° C.): 0.6 s⁻¹
k2app, apparent rate constant of slow association (receptor EGFP-NK2R [3]; NKA-BO 100 nM final, 21° C.): 0.03 s⁻¹
λ1, amplitude of the rapid association relaxation (receptor EGFP-NK2R [3]; NKA-BO 100 nM final, 21° C.): 67%
λ2, amplitude of the slow association relaxation (receptor EGFP-NK2R [3]; NKA-BO 100 nM final, 21° C.): 32%
kapp of the rapid binding of NKA-Bo (receptor EGFP-NK2R [3]; NKA-Bo 20 nM): 0.095 s⁻¹
kapp of the slow binding of NKA-Bo (receptor EGFP-NK2R [3]; NKA-Bo 20 nM, with or without A11): 0.0095 s⁻¹

NKA4-10 TR7: truncated neurokinin NKA4-10 marked in position 7 by Texas Red
amplitude of the rapid dissociation of NKA4-10 TR7 (receptor EGFP-NK2R [5]): 58%
amplitude of the slow dissociation of NKA4-10 TR7 (receptor EGFP-NK2R [6]): 42%
EC50 (receptor EGFP-NK2R [7]): ~0.02 µM
